These results are taken from patent US9447091B2, “Protein kinase inhibitors” (Orion Corporation, priority 2011, dated 2016).

One test has as its target FGFR1 kinase (Homo sapiens (Human), UniProt P11362). In words: FGFR1 TR-FRET kinase assay. The format is biochemical. Conditions: for IC50: 13 μM ATP, read-out: IC50 of FGFR1 inhibition. As to the method:
Compounds were screened in the TR-FRET assay with FGFR1 kinase. 5 ng of FGFR1 [Upstate, USA] kinase was used for assay. The compound was incubated with the kinase for 30 minutes at RT. After the incubation, substrate mix [40 nM Ultra light poly GT (Perkin Elmer, USA) and 13 μM ATP (Sigma)] was added. The above reaction was stopped by the addition of 40 mM EDTA after the […] kinase reaction. The Eu-labelled antiphospho-tyrosine antibody [Perkin Elmer, USA] was added at 0.5 nM and the fluorescence emission at 615 nm/665 nm [excitation at 340 nm] was measured. The compounds were initially screened at 100 nM and 1 μM concentrations. The compounds with >50% inhibition at 100 nM of FGFR1 were taken for the full dose response studies. The final DMSO concentration in the assay was 1%. For IC50 determination, ⅓^rd serial dilution was made from the 20 mM DMSO stock solution. 2 μl of these were transferred to the test wells containing 20 μl of the reaction mixture [total reaction volume 20 μl]. The fluorescence was measured in Perkin Elmer Wallac 1420 Multilabel Counter Victor 3. The IC50 was determined by fitting the dose response data to sigmoidal curve fitting equation using GraphPad Prism software V5.
(In general: TR-FRET usually uses a lanthanide donor and a delayed reading to cut background.)

The next test concerns the target c-Met kinase (Homo sapiens (Human), UniProt P08581). Briefly: c-Met TR-FRET kinase assay. The class given is biochemical. Conditions: 1000 nM compound. How it is done:
Compounds were screened in the TR-FRET assay with c-Met kinase. 0.1 ng of c-Met [expressed in-house] kinase was used for assay. The compound was incubated with the kinase for 60 min at RT. After the incubation, substrate mix [40 nM Ultra light poly GT (Perkin Elmer, USA) and 10 μM ATP (Sigma)] was added. The above reaction was stopped by the addition of 40 mM EDTA after the 30 min kinase reaction. The Eu-labelled antiphospho-tyrosine antibody [Perkin Elmer, USA] was added at 0.5 nM and the fluorescence emission at 615 nm/665 nm [excitation at 340 nm] was measured. The compounds were initially screened at 100 nM and 1 μM concentrations. The compounds with >50% inhibition at 100 nM of c-Met were taken for the full dose response studies. The final DMSO concentration in the assay was 1%. For IC50 determination, ⅓rd serial dilution was made from the 20 mM DMSO stock solution. 2 μl of these were transferred to the test wells containing 20 μl reaction mixture [total reaction volume 20 μl]. The fluorescence was measured in Perkin Elmer Wallac 1420 Multilabel Counter Victor 3. The IC50 was determined by fitting the dose response data to sigmoidal curve fitting equation using GraphPad Prism software V5.

Usually inhibition stands for the drop in the measured response relative to a control, in per cent. A higher inhibition goes with strong suppression. As a reminder, the IC50 is the point on the concentration scale where inhibition reaches its midpoint.

Chain of c-Met kinase (P08581 25-1390): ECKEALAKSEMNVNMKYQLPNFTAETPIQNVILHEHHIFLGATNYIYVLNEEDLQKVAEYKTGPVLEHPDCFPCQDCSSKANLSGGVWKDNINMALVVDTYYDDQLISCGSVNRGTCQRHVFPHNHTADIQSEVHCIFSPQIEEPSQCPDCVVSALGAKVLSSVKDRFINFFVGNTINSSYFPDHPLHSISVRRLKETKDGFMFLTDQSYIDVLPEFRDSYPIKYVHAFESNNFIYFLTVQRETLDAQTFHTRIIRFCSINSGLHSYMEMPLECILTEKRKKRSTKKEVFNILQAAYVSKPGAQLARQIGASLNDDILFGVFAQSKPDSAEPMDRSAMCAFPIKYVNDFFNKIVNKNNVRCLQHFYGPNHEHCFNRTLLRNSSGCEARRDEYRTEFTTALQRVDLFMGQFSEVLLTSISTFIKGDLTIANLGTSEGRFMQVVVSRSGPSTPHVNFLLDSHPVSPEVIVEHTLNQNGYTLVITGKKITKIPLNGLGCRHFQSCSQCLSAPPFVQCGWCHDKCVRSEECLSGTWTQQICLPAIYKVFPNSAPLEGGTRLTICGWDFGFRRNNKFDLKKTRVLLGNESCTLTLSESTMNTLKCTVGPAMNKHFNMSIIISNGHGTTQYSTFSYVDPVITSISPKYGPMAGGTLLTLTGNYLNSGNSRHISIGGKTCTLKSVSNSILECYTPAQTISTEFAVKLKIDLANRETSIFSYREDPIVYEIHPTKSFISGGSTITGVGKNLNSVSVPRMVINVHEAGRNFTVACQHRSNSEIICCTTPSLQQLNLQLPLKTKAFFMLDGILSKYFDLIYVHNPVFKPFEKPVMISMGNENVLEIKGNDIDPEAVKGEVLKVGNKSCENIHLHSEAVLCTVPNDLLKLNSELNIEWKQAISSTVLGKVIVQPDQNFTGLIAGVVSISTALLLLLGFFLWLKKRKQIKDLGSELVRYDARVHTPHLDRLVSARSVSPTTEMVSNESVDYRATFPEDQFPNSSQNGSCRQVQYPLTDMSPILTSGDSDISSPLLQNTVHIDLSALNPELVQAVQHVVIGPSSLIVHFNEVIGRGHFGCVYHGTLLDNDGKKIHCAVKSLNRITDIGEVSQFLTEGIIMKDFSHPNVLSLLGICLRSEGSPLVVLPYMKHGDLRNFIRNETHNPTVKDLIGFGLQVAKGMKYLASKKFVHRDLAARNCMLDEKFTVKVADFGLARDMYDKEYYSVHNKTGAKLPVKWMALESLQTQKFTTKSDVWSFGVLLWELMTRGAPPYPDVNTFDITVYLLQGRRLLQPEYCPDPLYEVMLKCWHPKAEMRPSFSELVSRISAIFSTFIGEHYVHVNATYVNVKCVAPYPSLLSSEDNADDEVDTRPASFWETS
Chain of FGFR1 kinase (P11362 22-822): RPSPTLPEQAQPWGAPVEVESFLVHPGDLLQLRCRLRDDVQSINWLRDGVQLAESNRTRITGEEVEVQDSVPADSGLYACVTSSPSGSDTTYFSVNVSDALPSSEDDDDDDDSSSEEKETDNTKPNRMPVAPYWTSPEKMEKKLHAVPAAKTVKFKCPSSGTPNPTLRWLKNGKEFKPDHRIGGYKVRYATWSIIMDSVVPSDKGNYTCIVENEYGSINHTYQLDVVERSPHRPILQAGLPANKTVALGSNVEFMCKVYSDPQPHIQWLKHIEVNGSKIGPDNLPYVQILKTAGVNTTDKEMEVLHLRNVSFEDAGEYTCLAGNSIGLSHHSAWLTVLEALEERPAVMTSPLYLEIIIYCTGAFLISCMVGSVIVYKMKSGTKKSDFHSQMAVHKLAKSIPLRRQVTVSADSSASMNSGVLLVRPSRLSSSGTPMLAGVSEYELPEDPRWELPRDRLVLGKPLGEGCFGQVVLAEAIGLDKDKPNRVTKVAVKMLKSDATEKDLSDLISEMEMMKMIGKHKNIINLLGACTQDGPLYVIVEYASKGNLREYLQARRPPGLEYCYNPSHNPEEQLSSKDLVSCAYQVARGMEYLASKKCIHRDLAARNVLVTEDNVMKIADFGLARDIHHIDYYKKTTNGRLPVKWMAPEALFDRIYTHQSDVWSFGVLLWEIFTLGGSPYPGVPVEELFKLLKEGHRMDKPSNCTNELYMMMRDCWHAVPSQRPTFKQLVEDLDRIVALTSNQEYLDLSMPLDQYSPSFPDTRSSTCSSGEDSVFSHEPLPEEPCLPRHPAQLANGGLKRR

Regarding `CC(=O)Nc1cc(-c2ccc(C)o2)cc(-n2cnc3cc(-c4cnn(CCN5CCOCC5)c4)ccc32)c1` [Example 83, N-(3-(5-methylfuran-2-yl)-5-(5-(1-(2-morpholinoethyl)-1H-pyrazol-4-yl)-1H-benzo[d]imidazol-1-yl)phenyl)acetamide], the values for the inhibition at 1 µM at FGFR1 kinase (1000 nM compound) and against c-Met kinase were 95% and 5%, respectively. For the same molecule, on FGFR1 kinase, the 50% inhibitory concentration (IC50) was determined as 37 nM.
Regarding `CC(=O)Nc1cc(-c2c(F)cccc2F)cc(-n2cnc3cc(-n4cccn4)ccc32)c1` [Example 152, N-(5-(5-(1H-pyrazol-1-yl)-1H-benzo[d]imidazol-1-yl)-2′,6′-difluorobiphenyl-3-yl)acetamide], the values for the inhibition at 1 µM against FGFR1 kinase (1000 nM compound) and on c-Met kinase were 79% and 0%, respectively. The IC50 at FGFR1 kinase came out at 7.3 nM.
Take `CNS(=O)(=O)N(C)c1cc(-c2ccc(F)cc2F)cc(-n2cnc3cc(-c4cnn(C(C)C)c4)cnc32)c1` [Example 217, N-(2′,4′-difluoro-5-(6-(1-isopropyl-1H-pyrazol-4-yl)-3H-imidazo[4,5-b]pyridin-3-yl)-[1,1′-biphenyl]-3-yl)-N,N′-dimethylsulfuric diamide]: at FGFR1 kinase (1000 nM compound), testing at 1 µM gave an inhibition of 91%. Also, the IC50 on FGFR1 kinase stood at 10.4 nM.
With `Cn1cc(-c2ccc3c(c2)ncn3-c2cc(NS(=O)(=O)N3CCCCC3)cc(-n3cccn3)c2)cn1` [Example 119, N-(3-(5-(1-methyl-1H-pyrazol-4-yl)-1H-benzo[d]imidazol-1-yl)-5-(1H-pyrazol-1-yl)phenyl)piperidine-1-sulfonamide], the inhibition at 1 µM turned out to be 94% at FGFR1 kinase (1000 nM compound) and 23% at c-Met kinase. For the same molecule, the half-maximal inhibitory concentration (IC50) at FGFR1 kinase amounted to 83 nM.
Consider `CS(=O)(=O)Nc1cc(-c2ncccc2F)cc(-n2cnc3cc(-c4cnn(CCN5CCOCC5)c4)ccc32)c1` [Example 294, N-(3-(3-fluoropyridin-2-yl)-5-(5-(1-(2-morpholinoethyl)-1H-pyrazol-4-yl)-1H-benzo[d]imidazol-1-yl)phenyl)methane sulphonamide], for which the inhibition at 1 µM against FGFR1 kinase (1000 nM compound) amounted to 99%. Besides, the IC50 on FGFR1 kinase amounted to 9.3 nM.
As to `COc1ccc(-c2cc(NC(C)=O)cc(-n3cnc4cc(-c5cnn(C)c5)ccc43)c2)cn1` [Example 158, N-(3-(6-methoxypyridin-3-yl)-5-(5-(1-methyl-1H-pyrazol-4-yl)-1H-benzo[d]-imidazol-1-yl)phenyl)acetamide], the inhibition at 1 µM against FGFR1 kinase (1000 nM compound) came out at 95%; against c-Met kinase, 12%. At FGFR1 kinase, the IC50 stood at 22 nM.
As to `CC(=O)Nc1cc(-c2ccc(C)o2)cc(-n2cnc3cc(-c4cnn(CCN(C)C)c4)ccc32)c1` [Example 82, N-(3-(5-(1-(2-(dimethylamino)ethyl)-1H-pyrazol-4-yl)-1H-benzo[d]imidazol-1-yl)-5-(5-methylfuran-2-yl)phenyl)acetamide], the values for the inhibition at 1 µM at FGFR1 kinase (1000 nM compound) and at c-Met kinase were 96% and 15%, respectively. In addition, the IC50 on FGFR1 kinase stood at 16 nM.
Consider `CC(=O)Nc1cc(-c2ccc(F)cc2F)cc(-n2cnc3cc(-c4ccc(F)nc4)cnc32)c1` [Example 178, N-(2′,4′-difluoro-5-(6-(6-fluoropyridin-3-yl)-3H-imidazo[4,5-b]pyridin-3-yl)-[1,1′-biphenyl]-3-yl)acetamide], for which 1 µM produced 86% inhibition against FGFR1 kinase (1000 nM compound). Besides, the IC50 at FGFR1 kinase amounted to 14.9 nM.
In turn, `O=S(=O)(Nc1cc(C2=CC=C(F)CC2F)cc(-n2cnc3cc(N4CCC(O)C4)ccc32)c1)C1CC1` (centres unmarked) [Example 322, N-(2′,4′-difluoro-5-(5-(3-hydroxypyrrolidin-1-yl)-1H-benzo[d]imidazol-1-yl)-2′,3′-dihydro-[1,1′-biphenyl]-3-yl)cyclopropanesulfonamide] returned an inhibition at 1 µM on FGFR1 kinase (1000 nM compound) of 92%. Also, the half-inhibitory concentration (IC50) at FGFR1 kinase was 65.8 nM.
`Cn1cc(-c2ccc3c(c2)ncn3-c2cc(NC(=O)Cn3cncn3)cc(-c3ccc(F)cc3F)c2)cn1` [Example 241, N-(2′,4′-difluoro-5-(5-(1-methyl-1H-pyrazol-4-yl)-1H-benzo[d]imidazol-1-yl)-[1,1′-biphenyl]-3-yl)-2-(1H-1,2,4-triazol-1-yl) acetamide]: the “Inhibition (%) of FGFR1 at 1000 nM” value at FGFR1 kinase (1000 nM compound) turned out to be 97%. In addition, on FGFR1 kinase, the half-inhibitory concentration (IC50) came to 2.9 nM.
`Cn1cc(-c2ccc3c(c2)ncn3-c2cc(Nc3ncccn3)cc(-c3ccc(F)cc3F)c2)cn1` [Example 280, N-(2′,4′-difluoro-5-(5-(1-methyl-1H-pyrazol-4-yl)-1H-benzo[d]imidazol-1-yl)-[1,1′-biphenyl]-3-yl)pyrimidin-2-amine] registered an inhibition at 1 µM at FGFR1 kinase (1000 nM compound) of 80%. Besides, the IC50 at FGFR1 kinase amounted to 90 nM.
On the same counts, the results for `Cn1cc(-c2cnc3c(c2)ncn3-c2cc(NS(=O)(=O)NC3CC3)cc(-c3ccc(F)cc3F)c2)cn1` [Example 244, N-cyclopropyl-N′-(2′,4′-difluoro-5-(6-(1-methyl-1H-pyrazol-4-yl)-3H-imidazo[4,5-b]pyridin-3-yl)-[1,1′-biphenyl]-3-yl)-sulfuric diamide] are 98% and 14 nM.
On to `CC(=O)Nc1cc(-c2ccc(F)cc2F)cc(-n2cnc3cc(C4=NCCN4)ccc32)c1` [Example 169, N-(5-(5-(4,5-dihydro-1H-imidazol-2-yl)-1H-benzo[d]imidazol-1-yl)-2′,4′-difluoro-[1,1′-biphenyl]-3-yl)acetamide], for which 1 µM produced 89% inhibition at FGFR1 kinase (1000 nM compound). Also, the IC50 at FGFR1 kinase came out at 94 nM.
In the same order, the values of `O=c1ccc(-c2ccc3c(c2)ncn3-c2cc(NS(=O)(=O)C3CC3)cc(-c3ccc(F)cc3F)c2)c[nH]1` [Example 289, N-(2′,4′-difluoro-5-(5-(6-oxo-1,6-dihydropyridin-3-yl)-1H-benzo[d]imidazol-1-yl)-[1,1′-biphenyl]-3-yl)cyclopropanesulfonamide] are 94% and 32 nM.
In the same order, the values of `O=C(CN1CCCCC1)Nc1cc(-c2ccc(F)cc2F)cc(-n2cnc3cc(-n4cccn4)ccc32)c1` [Example 259, N-(5-(5-(1H-pyrazol-1-yl)-1H-benzo[d]imidazol-1-yl)-2′,4′-difluoro-[1,1′-biphenyl]-3-yl)-2-(piperidin-1-yl)acetamide] are 92% and 45 nM.
In the same order, the values of `CN1CCC(C(=O)Nc2cc(-c3ccc(F)cc3F)cc(-n3cnc4cc(-c5cnn(C)c5)cnc43)c2)CC1` [Example 319, N-(2′,4′-difluoro-5-(6-(1-methyl-1H-pyrazol-4-yl)-3H-imidazo[4,5-b]pyridin-3-yl)-[1,1′-biphenyl]-3-yl)-1-methylpiperidine-4-carboxamide] are 97% and 18 nM.
For `Cn1cc(-c2ccc3c(c2)ncn3-c2cc(Nc3nccs3)cc(-c3ccc(F)cc3F)c2)cn1` [Example 281, N-(2′,4′-difluoro-5-(5-(1-methyl-1H-pyrazol-4-yl)-1H-benzo[d]imidazol-1-yl)-[1,1′-biphenyl]-3-yl) thiazol-2-amine], on FGFR1 kinase (1000 nM compound), testing at 1 µM gave an inhibition of 96%. In addition, the IC50 at FGFR1 kinase was determined as 9 nM.
On the same counts, the results for `CC(C)n1cc(-c2ccc3c(c2)ncn3-c2cc(NS(=O)(=O)C3CC3)cc(-c3ccc(F)cc3F)c2)cn1` [Example 204, N-(2′,4′-difluoro-5-(5-(1-isopropyl-1H-pyrazol-4-yl)-1H-benzo[d]imidazol-1-yl)-[1,1′-biphenyl]-3-yl)cyclopropanesulfonamide] are 98% and 20 nM.
On the same counts, the results for `COc1ccc(-c2cc(NC(C)=O)cc(-n3cnc4cc(-c5cnn(C)c5)ccc43)c2)c(F)c1` [Example 190, N-(2′-fluoro-4′-methoxy-5-(5-(1-methyl-1H-pyrazol-4-yl)-1H-benzo[d]imidazol-1-yl)-[1,1′-biphenyl]-3-yl)acetamide] are 96% and 4.3 nM.
In the same order, the values of `CC(=O)Nc1cc(-c2ccc(F)cc2)cc(-n2cnc3cc(-c4ccc(F)nc4)ccc32)c1` [Example 170, N-(4′-fluoro-5-(5-(6-fluoropyridin-3-yl)-1H-benzo[d]imidazol-1-yl)-[1,1′-biphenyl]-3-yl)acetamide] are 92% and 59 nM.
In the case of `CC(=O)Nc1cc(-c2ccc(F)cc2)cc(-n2cnc3cc(-c4cnn(CCC(C)(C)O)c4)ccc32)c1` [Example 220, N-(4′-fluoro-5-(5-(1-(3-hydroxy-3-methylbutyl)-1H-pyrazol-4-yl)-1H-benzo[d]-imidazol-1-yl)-[1,1′-biphenyl]-3-yl) acetamide], the inhibition at 1 µM at FGFR1 kinase (1000 nM compound) was determined as 97%. In addition, on FGFR1 kinase, the IC50 was 3.4 nM.
